Test results: PMC10947113, “A Bivalent Activatable Fluorescent Probe for Screening and Intravital Imaging of Chemotherapy‐Induced Cancer Cell Death” (Angewandte Chemie (Weinheim an Der Bergstrasse, Germany), 2021)

Test system: breast cancer cells (MMTV-PyMT, MDA-MB231, MCF7)
Test: Dose-dependency study in breast cancer cell lines
Type: cell-based, mouse and human
Experimental: First, all drugs were tested in the 8 different cell lines to determine the percentages of Apotracker Red‐stained apoptotic cells compared to no treatment (Figure 3 c; Figure S8). […] From this screen, we decided to select 5 drugs with potent pro‐apoptotic response in breast cancer, the most diagnosed cancer worldwide.[25] […] From group 2, we selected cyclophosphamide, tamoxifen, and 5‐fluorouracil as pro‐apoptotic molecules. […] All 5 drugs were tested at multiple concentrations (from 1 to 100 μM) and with incubation times up to 48 h to examine whether drugs could block cell proliferation at late stages (Figures S9–S13).
Figure 4 Apotracker Red detects dose‐dependent chemotherapeutic‐induced apoptosis in mouse and human breast cancer cell lines. Cells were plated with 1 μM CV, treated with increasing concentrations (0, 1, 3, 10, 30 and 100 μM) of selected drugs for 48 h, and stained with Apotracker Red (150 nM) before data acquisition. Drugs: tamoxifen (beige), cisplatin (black), 5‐fluorouracil (green), gemcitabine (pink) and cyclophosphamide (red). Data presented as mean±SEM of 3 independent experiments.
Edinburgh. Human peripheral blood neutrophils were isolated as previously described.[3] Briefly, whole blood was drawn into tubes containing anti -coagulant 3.6% sodium citrate (final concentration: 0.4% (w/v)) and centrifuged at 350 g for 20 min at r.t. with lowest acceleration and no brake. Platelet-rich plasma was rem oved, and leukocytes separated from erythrocytes by 0.6% dextran sedimentation in saline for 30 min at r.t. […]
were centrifuged (300 g, 5 min, r.t.), washed once with PBS before addition of 0.05% Trypsin, 0.02% ethylenediaminetetraacetic acid (EDTA) in Hank’s balanced salt solution (HBSS) and incubation at 37°C for 5 min. […] Histograms and mean fluorescence intensities of apoptotic cells were measured on a 5L LSR flow cytometer under the following excitation/emission filters: Apotracker Red (561/610 nm), Annexin V-AF647 (647 /670 nm).
Data were acquired using the FACS Diva software and analysed using the FlowJo X software. […]

SMILES: N.N.[Cl][Pt][Cl] [cisplatin]
- percentages of Apotracker Red staining across all breast cancer cells, dose-dependency study (1 to 100 μM, 48 h, Apotracker Red 150 nM, 3 independent experiments): highest percentages of Apotracker Red staining
- ratios of proliferation blockage, dose-dependency study (CellTrace Violet 1 μM, drugs 1 to 100 μM, up to 48 h): highest ratios of proliferation blockage
